The results in this text go back to ChEMBL document CHEMBL3400103, “Synthesis and biological evaluation of novel HIV-1 protease inhibitors using tertiary amine as P2-ligands” (Bioorg Med Chem Lett, 2015).

pIC50: −log10 of the molar value. Bounds are passed on as bounds.

For this assay, the target named is Protease (Human immunodeficiency virus 1, UniProt Q9YQ12). Kind of assay: Inhibition of HIV1 protease expressed in Escherichia coli incubated for 20 to 30 mins at room temperature using (Arg-Glu(EDANS)-Ser-Gln-Asn-Tyr-Pro-Ile-Val-Gln-Lys(DABCYL)-Arg) substrate by FRET method.
Chain of Protease (Q9YQ12 whole entry): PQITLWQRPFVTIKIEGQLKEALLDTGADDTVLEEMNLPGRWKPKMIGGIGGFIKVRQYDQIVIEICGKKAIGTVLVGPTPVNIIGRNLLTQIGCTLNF

By pIC50 is commonly meant the IC50 on a negative log10 scale, so that one unit is a factor of ten. A high value points to a low IC50. The compound `Cc1cccc(C)c1N(CC(=O)N[C@@H](Cc1ccccc1)[C@H](O)CN(CC(C)C)S(=O)(=O)c1ccc([N+](=O)[O-])cc1)CC(=O)N1CCOCC1` had a pIC50 of 7.14.
Consider `COc1ccc(S(=O)(=O)N(CC(C)C)C[C@H](O)[C@H](Cc2ccccc2)NC(=O)CN(CC(=O)N2CCOCC2)c2c(C)cccc2C)cc1`, for which the pIC50 is 5.06.
Take `COc1ccc(N(CC(=O)N[C@@H](Cc2ccccc2)[C@@H](O)CN(CC(C)C)S(=O)(=O)c2ccc(N)cc2)CC(=O)N2CCOCC2)cc1`: the pIC50 was 5.17.
Compound `Cc1c(O)cccc1N(CC(=O)N[C@@H](Cc1ccccc1)[C@@H](O)CN(CC(C)C)S(=O)(=O)c1ccc(N)cc1)CC(=O)N(C)C` had a negative logarithm of the IC50 (pIC50) of 5.23.
To `Cc1cccc(C)c1N(CC(=O)N[C@@H](Cc1ccccc1)[C@H](O)CN(CC(C)C)S(=O)(=O)c1ccc(N)cc1)CC(=O)N1CCOCC1` belongs 7.19; to `COc1ccc(N(CC(=O)N[C@@H](Cc2ccccc2)[C@H](O)CN(CC(C)C)S(=O)(=O)c2ccc(CO)cc2)CC(=O)N(C)C)cc1`, 6.43; to `COc1ccc(N(CC(=O)N[C@@H](Cc2ccccc2)[C@H](O)CN(CC(C)C)S(=O)(=O)c2ccc(N)cc2)CC(=O)N(C)C)cc1`, 6.85.
On to `Cc1cccc(C)c1N(CC(=O)N[C@@H](Cc1ccccc1)[C@@H](O)CN(CC(C)C)S(=O)(=O)c1ccc(CO)cc1)CC(=O)N1CCOCC1`, for which the pIC50 was 5.05.
On to `Cc1cccc(C)c1N(CC(=O)N[C@@H](Cc1ccccc1)[C@@H](O)CN(CC(C)C)S(=O)(=O)c1ccc(CO)cc1)CC(=O)N(C)C`, for which the negative-log IC50 (pIC50) is 4.76.
In turn, `COc1ccc(N(CC(=O)N[C@@H](Cc2ccccc2)[C@H](O)CN(CC(C)C)S(=O)(=O)c2ccc([N+](=O)[O-])cc2)CC(=O)N2CCOCC2)cc1` had a pIC50 of 5.99.
Take `Cc1cccc(C)c1N(CC(=O)N[C@@H](Cc1ccccc1)[C@@H](O)CN(CC(C)C)S(=O)(=O)c1ccc([N+](=O)[O-])cc1)CC(=O)N(C)C`: the pIC50 is 5.23.
Compound `COc1ccc(S(=O)(=O)N(CC(C)C)C[C@@H](O)[C@H](Cc2ccccc2)NC(=O)CN(CC(=O)N2CCOCC2)c2cccc(O)c2C)cc1` had a pIC50 of 5.86.
The value for `COc1ccc(N(CC(=O)N[C@@H](Cc2ccccc2)[C@@H](O)CN(CC(C)C)S(=O)(=O)c2ccc(OC)cc2)CC(=O)N(C)C)cc1` was under 4.70; that for `COc1ccc(N(CC(=O)N[C@@H](Cc2ccccc2)[C@H](O)CN(CC(C)C)S(=O)(=O)c2ccc(N)cc2)CC(=O)N2CCOCC2)cc1` was 5.87; that for `Cc1c(O)cccc1N(CC(=O)N[C@@H](Cc1ccccc1)[C@H](O)CN(CC(C)C)S(=O)(=O)c1ccc(CO)cc1)CC(=O)N1CCOCC1` was 5.92.
In the case of `Cc1c(O)cccc1N(CC(=O)N[C@@H](Cc1ccccc1)[C@H](O)CN(CC(C)C)S(=O)(=O)c1ccc([N+](=O)[O-])cc1)CC(=O)N1CCOCC1`, the negative-log IC50 (pIC50) is 5.18.
Take `Cc1cccc(C)c1N(CC(=O)N[C@@H](Cc1ccccc1)[C@@H](O)CN(CC(C)C)S(=O)(=O)c1ccc(N)cc1)CC(=O)N(C)C`: the pIC50 is 6.31.
In the case of `Cc1c(O)cccc1N(CC(=O)N[C@@H](Cc1ccccc1)[C@H](O)CN(CC(C)C)S(=O)(=O)c1ccc([N+](=O)[O-])cc1)CC(=O)N(C)C`, the negative logarithm of the IC50 (pIC50) is 6.21. The pIC50 values of the last two compounds are within 0.2 log units of each other.
On to `Cc1c(O)cccc1N(CC(=O)N[C@@H](Cc1ccccc1)[C@H](O)CN(CC(C)C)S(=O)(=O)c1ccc(N)cc1)CC(=O)N(C)C`, for which the pIC50 is 6.23.
To `COc1ccc(S(=O)(=O)N(CC(C)C)C[C@H](O)[C@H](Cc2ccccc2)NC(=O)CN(CC(=O)N(C)C)c2cccc(O)c2C)cc1` belongs 5.24.
The compound `COc1ccc(N(CC(=O)N[C@@H](Cc2ccccc2)[C@H](O)CN(CC(C)C)S(=O)(=O)c2ccc(OC)cc2)CC(=O)N(C)C)cc1` had a pIC50 of 6.66.
In turn, `Cc1c(O)cccc1N(CC(=O)N[C@@H](Cc1ccccc1)[C@@H](O)CN(CC(C)C)S(=O)(=O)c1ccc(CO)cc1)CC(=O)N(C)C` gave a pIC50 of under 4.70.
As to `Cc1cccc(C)c1N(CC(=O)N[C@@H](Cc1ccccc1)[C@@H](O)CN(CC(C)C)S(=O)(=O)c1ccc(N)cc1)CC(=O)N1CCOCC1`, the negative logarithm of the IC50 (pIC50) is 5.59.
To `COc1ccc(N(CC(=O)N[C@@H](Cc2ccccc2)[C@@H](O)CN(CC(C)C)S(=O)(=O)c2ccc(OC)cc2)CC(=O)N2CCOCC2)cc1` belongs under 4.70.
In the case of `Cc1c(O)cccc1N(CC(=O)N[C@@H](Cc1ccccc1)[C@H](O)CN(CC(C)C)S(=O)(=O)c1ccc(CO)cc1)CC(=O)N(C)C`, the negative logarithm of the IC50 (pIC50) was 6.82.
The value for `COc1ccc(S(=O)(=O)N(CC(C)C)C[C@H](O)[C@H](Cc2ccccc2)NC(=O)CN(CC(=O)N(C)C)c2c(C)cccc2C)cc1` was under 4.70; that for `Cc1c(O)cccc1N(CC(=O)N[C@@H](Cc1ccccc1)[C@H](O)CN(CC(C)C)S(=O)(=O)c1ccc(N)cc1)CC(=O)N1CCOCC1` was 5.56; that for `Cc1c(O)cccc1N(CC(=O)N[C@@H](Cc1ccccc1)[C@@H](O)CN(CC(C)C)S(=O)(=O)c1ccc(CO)cc1)CC(=O)N1CCOCC1` was 5.21.
The value for `COc1ccc(N(CC(=O)N[C@@H](Cc2ccccc2)[C@H](O)CN(CC(C)C)S(=O)(=O)c2ccc(CO)cc2)CC(=O)N2CCOCC2)cc1` was 6.05; that for `COc1ccc(N(CC(=O)N[C@@H](Cc2ccccc2)[C@@H](O)CN(CC(C)C)S(=O)(=O)c2ccc(N)cc2)CC(=O)N(C)C)cc1` was 5.16; that for `COc1ccc(N(CC(=O)N[C@@H](Cc2ccccc2)[C@@H](O)CN(CC(C)C)S(=O)(=O)c2ccc([N+](=O)[O-])cc2)CC(=O)N2CCOCC2)cc1` was 4.72.
Compound `Cc1cccc(C)c1N(CC(=O)N[C@@H](Cc1ccccc1)[C@H](O)CN(CC(C)C)S(=O)(=O)c1ccc(CO)cc1)CC(=O)N1CCOCC1` had a pIC50 of 7.14.
The value for `Cc1c(O)cccc1N(CC(=O)N[C@@H](Cc1ccccc1)[C@@H](O)CN(CC(C)C)S(=O)(=O)c1ccc([N+](=O)[O-])cc1)CC(=O)N1CCOCC1` was under 4.70; that for `Cc1c(O)cccc1N(CC(=O)N[C@@H](Cc1ccccc1)[C@@H](O)CN(CC(C)C)S(=O)(=O)c1ccc(N)cc1)CC(=O)N1CCOCC1` was 4.79.
With `COc1ccc(N(CC(=O)N[C@@H](Cc2ccccc2)[C@@H](O)CN(CC(C)C)S(=O)(=O)c2ccc([N+](=O)[O-])cc2)CC(=O)N(C)C)cc1`, the negative logarithm of the IC50 (pIC50) was under 4.70.
In turn, `Cc1cccc(C)c1N(CC(=O)N[C@@H](Cc1ccccc1)[C@H](O)CN(CC(C)C)S(=O)(=O)c1ccc([N+](=O)[O-])cc1)CC(=O)N(C)C` gave a pIC50 of 6.54.
For the compound `Cc1cccc(C)c1N(CC(=O)N[C@@H](Cc1ccccc1)[C@H](O)CN(CC(C)C)S(=O)(=O)c1ccc(N)cc1)CC(=O)N(C)C`, the negative-log IC50 (pIC50) is 5.87.
Compound `COc1ccc(N(CC(=O)N[C@@H](Cc2ccccc2)[C@@H](O)CN(CC(C)C)S(=O)(=O)c2ccc(CO)cc2)CC(=O)N(C)C)cc1` showed a pIC50 of 5.27.
To `COc1ccc(S(=O)(=O)N(CC(C)C)C[C@@H](O)[C@H](Cc2ccccc2)NC(=O)CN(CC(=O)N(C)C)c2cccc(O)c2C)cc1` belongs 6.27; to `Cc1cccc(C)c1N(CC(=O)N[C@@H](Cc1ccccc1)[C@H](O)CN(CC(C)C)S(=O)(=O)c1ccc(CO)cc1)CC(=O)N(C)C`, 6.54.
Turning to `COc1ccc(N(CC(=O)N[C@@H](Cc2ccccc2)[C@H](O)CN(CC(C)C)S(=O)(=O)c2ccc([N+](=O)[O-])cc2)CC(=O)N(C)C)cc1`, the pIC50 was 6.68.
To `COc1ccc(S(=O)(=O)N(CC(C)C)C[C@@H](O)[C@H](Cc2ccccc2)NC(=O)CN(CC(=O)N(C)C)c2c(C)cccc2C)cc1` belongs 6.74.
In turn, `COc1ccc(N(CC(=O)N[C@@H](Cc2ccccc2)[C@@H](O)CN(CC(C)C)S(=O)(=O)c2ccc(CO)cc2)CC(=O)N2CCOCC2)cc1` showed a pIC50 of under 4.70.
The compound `COc1ccc(N(CC(=O)N[C@@H](Cc2ccccc2)[C@H](O)CN(CC(C)C)S(=O)(=O)c2ccc(OC)cc2)CC(=O)N2CCOCC2)cc1` showed a negative logarithm of the IC50 (pIC50) of 6.54.
Turning to `Cc1cccc(C)c1N(CC(=O)N[C@@H](Cc1ccccc1)[C@@H](O)CN(CC(C)C)S(=O)(=O)c1ccc([N+](=O)[O-])cc1)CC(=O)N1CCOCC1`, the negative-log IC50 (pIC50) was 5.23. This pIC50 lies 1.31 log units lower than the previous one.
In turn, `Cc1c(O)cccc1N(CC(=O)N[C@@H](Cc1ccccc1)[C@@H](O)CN(CC(C)C)S(=O)(=O)c1ccc([N+](=O)[O-])cc1)CC(=O)N(C)C` showed a pIC50 of 5.13.
`COc1ccc(S(=O)(=O)N(CC(C)C)C[C@@H](O)[C@H](Cc2ccccc2)NC(=O)CN(CC(=O)N2CCOCC2)c2c(C)cccc2C)cc1` showed a negative logarithm of the IC50 (pIC50) of 7.82.
`COc1ccc(S(=O)(=O)N(CC(C)C)C[C@H](O)[C@H](Cc2ccccc2)NC(=O)CN(CC(=O)N2CCOCC2)c2cccc(O)c2C)cc1` gave a pIC50 of under 4.70.
